From patent US20250120958A1, “Treatment of GM2 Gangliosidosis” (Azafaros B.V., priority 2022, published 2025) come the findings set out here.

This assay deals with T1, GCS (Homo sapiens, UniProt Q16739).
T1 sequence (Q16739 1-394): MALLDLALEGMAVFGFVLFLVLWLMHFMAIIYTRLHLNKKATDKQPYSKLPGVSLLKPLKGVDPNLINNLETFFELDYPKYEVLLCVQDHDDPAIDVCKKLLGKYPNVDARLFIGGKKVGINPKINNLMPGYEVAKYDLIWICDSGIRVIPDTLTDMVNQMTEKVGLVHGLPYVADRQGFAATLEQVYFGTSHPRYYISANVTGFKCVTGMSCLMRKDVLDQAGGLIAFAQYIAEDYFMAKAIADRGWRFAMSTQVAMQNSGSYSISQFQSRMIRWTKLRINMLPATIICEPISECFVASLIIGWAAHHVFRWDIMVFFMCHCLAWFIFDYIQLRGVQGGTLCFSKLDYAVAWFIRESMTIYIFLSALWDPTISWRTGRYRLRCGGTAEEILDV
In words: In vitro potency on GCS (glucosylceramide synthase). The class given is biochemical.

For the molecule `OC[C@H]1[C@@H](O)[C@H](O)[C@@H](O)CN1CCCCCOCc1ccc(-c2ccccc2)c(F)c1` [AZ-3102], the “inhibitory activity on GCS” value is on record as “low nM”. This molecule gave an IC50 (in vitro potency) of 2.54 nM.
